Data reported in publication PMC12682947, “Identification of New KCNT1‐Epilepsy Drugs by In Silico, Cell, and Drosophila Modeling” (Annals of Neurology, 2025).
Counter-ions that a name gives are not always drawn.

Biological target: T1, WT and mutant human KCNT1 channels (Homo sapiens, UniProt Q5JUK3)
T1 sequence (Q5JUK3 1-1230): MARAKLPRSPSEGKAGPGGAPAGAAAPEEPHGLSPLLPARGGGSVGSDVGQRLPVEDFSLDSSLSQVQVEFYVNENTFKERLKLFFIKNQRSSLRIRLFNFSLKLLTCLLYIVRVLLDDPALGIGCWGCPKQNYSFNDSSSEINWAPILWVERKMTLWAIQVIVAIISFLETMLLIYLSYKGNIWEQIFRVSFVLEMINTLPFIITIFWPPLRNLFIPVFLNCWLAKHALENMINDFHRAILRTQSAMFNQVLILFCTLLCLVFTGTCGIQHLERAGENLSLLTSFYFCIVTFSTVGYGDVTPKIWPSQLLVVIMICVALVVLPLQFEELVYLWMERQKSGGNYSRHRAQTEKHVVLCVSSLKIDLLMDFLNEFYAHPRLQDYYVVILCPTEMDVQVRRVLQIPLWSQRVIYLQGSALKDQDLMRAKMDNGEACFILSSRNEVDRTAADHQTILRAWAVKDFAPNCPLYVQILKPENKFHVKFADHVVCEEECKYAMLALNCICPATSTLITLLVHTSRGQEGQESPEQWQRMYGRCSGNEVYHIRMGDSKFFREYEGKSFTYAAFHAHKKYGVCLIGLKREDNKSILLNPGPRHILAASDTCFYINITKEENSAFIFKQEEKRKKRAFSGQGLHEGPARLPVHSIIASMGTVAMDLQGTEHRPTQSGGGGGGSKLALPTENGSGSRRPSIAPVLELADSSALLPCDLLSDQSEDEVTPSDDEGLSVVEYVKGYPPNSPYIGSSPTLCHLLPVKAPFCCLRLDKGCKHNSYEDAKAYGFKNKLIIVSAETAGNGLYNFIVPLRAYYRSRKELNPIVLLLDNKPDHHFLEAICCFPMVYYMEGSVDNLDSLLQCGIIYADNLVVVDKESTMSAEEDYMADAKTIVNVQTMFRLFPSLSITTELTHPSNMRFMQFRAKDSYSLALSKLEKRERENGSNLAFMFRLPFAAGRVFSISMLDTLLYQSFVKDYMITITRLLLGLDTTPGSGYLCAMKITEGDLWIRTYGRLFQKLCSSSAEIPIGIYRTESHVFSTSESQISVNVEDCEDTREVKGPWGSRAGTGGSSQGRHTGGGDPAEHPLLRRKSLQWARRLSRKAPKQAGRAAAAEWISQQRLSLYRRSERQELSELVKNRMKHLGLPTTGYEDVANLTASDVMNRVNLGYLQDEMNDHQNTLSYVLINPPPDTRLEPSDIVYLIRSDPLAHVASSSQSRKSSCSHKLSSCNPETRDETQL
Experiment: Inside-out patch clamp, statements pooled over WT and mutant channels
Assay type: cell-based
Details: inside-out patches; for inhibition at 0.25 µM: 250 nM
Description: The CHO cells were cultured in Dulbecco's modified Eagle's Medium (ThermoFisher, UK) supplemented with 10% (v/v) fetal bovine serum, 50 U/ml penicillin and 0.05 mg/ml streptomycin, and incubated at 37°C in 5% CO2 atmosphere. For whole cell recording of WT/Y796H KCNT1, CHO cells were transiently co‐transfected with concatemeric WT/Y796H and EYFP, as described previously.[29] For electrophysiological experiments, cells were plated onto borosilicate glass cover slips and used 2 to 4 days later. Human embryonic kidney 293T cells (HEK293T) were cultured in the same manner, but with medium supplemented with 2 mM L‐glutamine, and 1% (v/v) nonessential amino acids. For excised inside‐out recording of homomeric WT or mutant YFP‐tagged KCNT1, HEK293T cells plated on glass cover slips were transfected using Attractene Transfection Reagent (Qiagen, Germany) according to the manufacturer's instructions and used 2 to 3 days later.
Inside‐out patch clamp recordings were made at room temperature (23°C) from transiently transfected HEK293T cells, as described previously.[11] The pipette solution contained, in mM, 140 NaCl, 4 KCl, 2 CaCl2, 2 MgCl2, and 10 HEPES adjusted to pH 7.4 with NaOH. After achieving the inside‐out configuration, the intracellular face of the membrane was constantly perfused with a solution containing, in mM, 35 NaCl, 110 KCl, 0.2 EGTA, and 10 HEPES adjusted to pH 7.3 with KOH. Drug stock solutions of 5 to 20 mM in DMSO were first diluted in ethanol (1:10) and then in electrophysiological solution. KCNT1 currents were recorded using 2 voltage protocols, depending on the number of active channels in the patch before drug application. Macroscopic currents (number of active channels > 15) were recorded in response to 100 ms voltage ramps between −120 and 120 mV applied every 2 seconds from a holding potential of −78 mV. The average current amplitudes between 0 and 40 mV were used for the analyses and constructing the concentration‐response curves. With a lower number of active channels in the patch (3–15), current traces were recorded in response to 15‐second voltage steps to −20, 0, and 20 mV from a holding potential of −78 mV. Currents recorded at each voltage and each drug concentration were averaged over the duration of the trace and normalized to the average amplitudes of the corresponding current traces in drug‐free solution. The normalized data for all 3 voltage steps were then averaged for each drug concentration and used to build the concentration‐response curves (see Supplementary Fig S3). To determine the IC50, data were fitted with the Hill equation, as described previously.[11] Single channel data were analyzed using Ana software developed by Dr Michael Pusch (Istituto di Biofisica, Genova, Italy; http://users.ge.ibf.cnr.it/pusch/programs-mik.htm). […]

Compound | inhibition at 0.25 µM | inhibition at 0.3 µM (300 nM, read-out: inhibition of single KCNT1 channels) | IC50 (read-out: direct IC50 on single KCNT1 channels)
Cc1c(O)cccc1C(=O)N[C@@H](CSc1ccccc1)[C@H](O)CN1C[C@H]2CCCC[C@H]2C[C@H]1C(=O)NC(C)(C)C [nelfinavir mesylate] | 80 to 90% | – | –
O=C(OCCN1CCN(c2cccc(C(F)(F)F)c2)CC1)c1ccccc1Nc1ccnc2cc(C(F)(F)F)ccc12 [antrafenine] | 80 to 90% | ~90% | ~10 nM
